In PMC9734143, “An efficient human stem cells derived cardiotoxicity testing platform for testing oncotherapeutic analogues of quercetin and cinnamic acid” (Scientific Reports, 2022):

What was measured:
[1] = tested on: WJMSC-derived cardiomyocytes (WJCM); experiment: MTT and CCK-8 cell viability assays in WJCM; type: cell-based, human; conditions: 24 h; analogues at Vero IC50 concentration; Dox 1 µM
Protocol: (§1) Similarly, the toxicity of these compounds in terms of the viability of cells was estimated by using the MTT assay and cell counting kit-8 (CCK-8) assay. For MTT assay, after 24 h of treatments, MTT (5 mg/ml of PBS; HiMedia, India) was added, and cells were incubated for 2 h at 37 °C. The formazan crystals that were formed after the incubation were dissolved using dimethyl sulfoxide (DMSO). For the CCK-8 assay, 10 μL of CCK-8 solution (Boster Biological Technology, Pleasanton, CA, USA) was added to each well and incubated for 2 h at 37 °C. The absorbance for MTT and CCK-8 assay was measured at 570 nm and 450 nm respectively using the EnSight™ Multimode plate reader (Perkin Elmer, MA, USA)[49],[50].

H9C2 cells [2] = experiment: LDH release assay in H9C2 cells; type: cell-based, rat; conditions: 24 h; analogues at Vero IC50 concentration
Protocol: (§2) The experiment was performed as per the manufacturer’s protocol. Absorbance was taken at 490 nm and 680 nm (background signal) using multimode plate reader. LDH activity was calculated by subtracting absorbance taken at 680 nm from 490 nm.

[3] = tested on: WJMSC-derived cardiomyocytes (WJCM); experiment: LDH release assay in WJCM; type: cell-based, human; conditions: 24 h; analogues at Vero IC50 concentration
Protocol: as §2

[4] = tested on: WJMSC-derived cardiomyocytes (WJCM); experiment: Intracellular ROS assay in WJCM; type: cell-based, human; conditions: 24 h; analogues at Vero IC50 concentration
Protocol: (§3) Generation of ROS was detected using Fluorometric intracellular ROS kit (Sigma Aldrich, MO, USA) as per manufacturer’s protocol. Fluorescence was measured at excitation and emission of 650 nm and 675 nm respectively via multimode plate reader[50],[51].

H9C2 cells [5] = experiment: Griess assay (NO release) in H9C2 cells; type: cell-based, rat; conditions: 24 h; analogues at Vero IC50 concentration
Protocol: (§4) Nitric oxide (NO) release was estimated using the Griess assay. Briefly, after 24 h of drug treatment, Griess reagent (Sigma Aldrich, MO, USA) was added to cells in equal volume and incubated for 30 min in the dark, and absorbance was taken at 540 nm via multimode plate reader.

[6] = tested on: WJMSC-derived cardiomyocytes (WJCM); experiment: Griess assay (NO release) in WJCM; type: cell-based, human; conditions: 24 h
Protocol: as §4

H9C2 cells [7] = experiment: Fura-2AM intracellular calcium assay in H9C2 cells; type: cell-based, rat; conditions: 24 h; analogues at Vero IC50 concentration
Protocol: (§5) Intracellular calcium flux was measured using the fluorescent radiometric Ca^2+ indicator, Fura-2 acetoxymethyl ester (Fura-2, AM; Invitrogen, Carlsbad, USA). Briefly, after 24 h of treatment, Fura-2AM (1 μmol/L) was added to cells and incubated for 30 min at 37 °C. The intracellular calcium flux was measured at excitation of 340 nm and 380 nm and emission of 510 nm using a multimode plate reader.

[8] = tested on: WJMSC-derived cardiomyocytes (WJCM); experiment: Fura-2AM intracellular calcium assay in WJCM; type: cell-based, human; conditions: 24 h; analogues at Vero IC50 concentration
Protocol: as §5

H9C2 cells [9] = experiment: TMRE mitochondrial membrane potential assay in H9C2 cells; type: cell-based, rat; conditions: 24 h; analogues at Vero IC50 concentration
Protocol: (§6) Mitochondrial membrane potential of the cells after drug treatment was detected using tetramethylrhodamine ethyl ester dye (TMRE; Molecular Probes, CA, USA). The cells were incubated with 0.3 µM TMRE dye and incubated at 37 °C for 30 min in dark. Fluorescence intensity of TMRE was measured at excitation and emission of 549 nm and 574 nm respectively via a multimode plate reader.

[10] = tested on: cardiac markers (NKX2.5, GATA4, Troponin I, Troponin T, MHCα) in WJCM; experiment: qRT-PCR gene expression of cardiac-specific markers in WJCM; conditions: qRT-PCR; analogues at Vero IC50 concentration
Protocol: Differentiation of WJMSCs was done using a proprietary combination of DNMT and HDAC inhibitors in KO-DMEM/F-12 containing 10% FBS for 48 h. Induction media was replaced with culture media i.e. KO-DMEM/F-12 with 1X GlutaMAX and, 10% FBS after 48 h for 7 days[23].
WJMSC-derived cardiomyocytes (WJCM) and H9C2 were treated with NMJ and QMJ analogues for 24 h. […] To illustrate the toxicity specific to cardiac cells and not a general cytotoxicity, WJMSCs were treated with positive cardiotoxic drugs.
Total ribonucleic acid (RNA) was isolated using RNAiso Plus (TaKaRa, Shiga, Japan) followed by cDNA conversion using PrimeScript™ 1st strand cDNA synthesis kit (TaKaRa, Shiga, Japan). Quantitative reverse transcriptase-polymerase chain reaction (qRT-PCR) was performed by using TB Green™ Premix Ex Taq™ II (Tli RNase H Plus; TaKaRa, Shiga, Japan) for cardiac markers in a QuantStudio™ 5 real-time PCR Systems (Applied Biosystems, USA). All the primers were purchased from Sigma Aldrich, Bangalore, India (Table 1). The relative gene expression was calculated using 2^-∆∆CT and GAPDH, a housekeeping gene was used as endogenous control[52],[53].

[11] = tested on: cardiomyocytes (WJCM and H9C2 cells); experiment: Cardiotoxicity across parameters as summarised in the discussion (WJCM and H9C2 cells); type: cell-based, human and rat; conditions: for overall cardiotoxicity across the parameters analyzed: analogues at Vero IC50 concentration, 24 h; for active mitochondria status in treated cardiomyocytes / cytotoxic effect against cardiomyocytes by MTT, CCK-8 and LDH assay / intracellular calcium level in treated cardiomyocytes: discussion summary, cell model not specified
Description: We investigated the effects of 3-hydroxyflavone (QMJ-2, QMJ-5, and QMJ-6) and cinnamyl sulfonamide-hydroxamate (NMJ-1, NMJ-2, NMJ-3) in WJCM and H9C2 cells using the concentrations reported for non-cancerous Vero cells. The prerequisite for any synthesized drug molecules is that they should be nontoxic to cardiac cells.

[12] = tested on: Vero, a non-cancerous cell line; parameters: method as in PMID 25824412, PMID 30687400; conditions: read-out: IC50 in Vero cells; cited from earlier work
H9C2 cells [13] = experiment: MTT cell viability assay in H9C2 cells; type: cell-based, rat; conditions: 24 h, analogues at Vero IC50 concentration
Protocol: as §1

H9C2 cells [14] = experiment: Intracellular ROS assay in H9C2 cells; type: cell-based, rat; conditions: 24 h; analogues at Vero IC50 concentration
Protocol: as §3

[15] = tested on: WJMSC-derived cardiomyocytes (WJCM); experiment: TMRE mitochondrial membrane potential assay in WJCM; type: cell-based, human; conditions: 24 h; analogues at Vero IC50 concentration
Protocol: as §6

## O=C(/C=C/c1ccc(S(=O)(=O)NCCc2cccs2)cc1)NO [NMJ-2]
[1]
  toxicity / cell viability in WJCM (MTT, CCK-8), result in words: less toxic
H9C2 cells [2]
  LDH release in H9C2 cells: increase in LDH
[3]
  LDH release in WJCM: increase in LDH
[4]
  ROS activity in WJCM: lowered ROS activity
H9C2 cells [5]
  NO level in H9C2 cells (Griess): elevated NO levels
[6]; analogues at Vero IC50 concentration
  NO level in WJCM (Griess), result in words: elevated NO levels
H9C2 cells [7]
  intracellular Ca2+ accumulation in H9C2 cells (Fura-2AM): decrease in Ca^2+ accumulation
[8]
  intracellular Ca2+ accumulation in WJCM (Fura-2AM): decrease in Ca^2+ accumulation
H9C2 cells [9]
  mitochondrial membrane potential in H9C2 cells (TMRE): increased mitochondrial membrane potential
[10]
  GATA4 gene expression in WJCM: marked upregulation
  MHCα gene expression in WJCM: marked upregulation
  NKX2.5 gene expression in WJCM: significant increase
  Troponin I gene expression in WJCM: marked upregulation
  Troponin T gene expression in WJCM, result in words: milder increase
[11]
  overall cardiotoxicity across the parameters analyzed: do not display significant cardiotoxicity
  active mitochondria status in treated cardiomyocytes: remains unaffected
  cytotoxic effect against cardiomyocytes by MTT, CCK-8 and LDH assay: no cytotoxic effect
  intracellular calcium level in treated cardiomyocytes: remained low
[12]
  IC50: 8.2 µM

## O=C(/C=C/c1ccc(S(=O)(=O)NCc2ccco2)cc1)NO [NMJ-3]
H9C2 cells [13]
  viability of H9C2 cells (MTT), result in words: increase in viability
H9C2 cells [13]; Dox 1 µM
  decrease in viability of H9C2 cells (MTT): 10–20%
[1]
  toxicity / cell viability in WJCM (MTT, CCK-8), result in words: less toxic
H9C2 cells [2]
  LDH release in H9C2 cells: no to little change
[3]
  LDH release in WJCM: no to little change
H9C2 cells [14]
  ROS activity in H9C2 cells: lowered ROS activity
[4]
  ROS activity in WJCM: lowered ROS activity
[6]; NMJ-3 at 15.1 µM
  decrease of NO level in WJCM (Griess): 12%
H9C2 cells [7]
  intracellular Ca2+ accumulation in H9C2 cells (Fura-2AM): decrease in Ca^2+ accumulation
[8]
  intracellular Ca2+ accumulation in WJCM (Fura-2AM): decrease in Ca^2+ accumulation
H9C2 cells [9]
  mitochondrial membrane potential in H9C2 cells (TMRE): increased mitochondrial membrane potential
[15]
  mitochondrial membrane potential in WJCM (TMRE): increased mitochondrial membrane potential
[10]
  GATA4 gene expression in WJCM: marked upregulation
  MHCα gene expression in WJCM: marked upregulation
  Troponin I gene expression in WJCM: marked upregulation
  Troponin T gene expression in WJCM, increase: 8–10 fold
[11]
  overall cardiotoxicity across the parameters analyzed: do not display significant cardiotoxicity
  active mitochondria status in treated cardiomyocytes: remains unaffected
  cytotoxic effect against cardiomyocytes by MTT, CCK-8 and LDH assay: no cytotoxic effect
  intracellular calcium level in treated cardiomyocytes: remained low
[12]
  IC50: 15.1 µM

## COc1ccc2c(=O)c(O)c(-c3ccc(C)cc3)oc2c1 [QMJ-6, 3-Hydroxy-7-methoxy-2-(4-methylphenyl)-4H-1-benzopyran-4-one]
H9C2 cells [13]
  viability of H9C2 cells (MTT), result in words: increase in viability
[1]
  toxicity / cell viability in WJCM (MTT, CCK-8), result in words: less toxic
H9C2 cells [2]
  LDH release in H9C2 cells: no to little change
[3]
  LDH release in WJCM: no to little change
H9C2 cells [14]
  ROS activity in H9C2 cells: lowered ROS activity
[4]
  ROS activity in WJCM: lowered ROS activity
H9C2 cells [5]
  NO level in H9C2 cells (Griess): elevated NO levels
H9C2 cells [7]
  intracellular Ca2+ accumulation in H9C2 cells (Fura-2AM): decrease in Ca^2+ accumulation
[8]
  intracellular Ca2+ accumulation in WJCM (Fura-2AM): decrease in Ca^2+ accumulation
H9C2 cells [9]
  mitochondrial membrane potential in H9C2 cells (TMRE): increased mitochondrial membrane potential
[15]
  mitochondrial membrane potential in WJCM (TMRE): increased mitochondrial membrane potential
[10]
  GATA4 gene expression in WJCM: marked upregulation
  MHCα gene expression in WJCM: marked upregulation
  NKX2.5 gene expression in WJCM: significant increase
  Troponin I gene expression in WJCM: marked upregulation
  Troponin T gene expression in WJCM, increase: 8–10 fold
[11]
  overall cardiotoxicity across the parameters analyzed: do not display significant cardiotoxicity
  active mitochondria status in treated cardiomyocytes: remains unaffected
  cytotoxic effect against cardiomyocytes by MTT, CCK-8 and LDH assay: no cytotoxic effect
  intracellular calcium level in treated cardiomyocytes: remained low
[12]
  IC50: 153 µM
